Assay results published in patent publication US9115166B2, “Rebaudioside A derivative products and methods for making” (The Coca-Cola Company, priority 2008, dated 2015).
Marks after values point to notes of the source that are not given here.

Legend:
[1] = Sweetness intensity of a water sample of derivative product compared with a water sample of sucrose (Example 4); format: in vivo; details: for Sweetness Intensity of Derivative Product (as compared to equivalent amount of sucrose): in water, amount of sample by weight: 1 (II) 3.6 %, 2 (IV) 1.1 %, 3 (III) 9.7 %, 4 (V) 6 %
Experimental: The sweetness intensity of the foregoing rebaudioside A derivative products was analyzed by comparing the sweetness intensity of a water sample having a particular amount of sucrose with a second water sample having an identical amount of a rebaudioside A derivative product.

[2] = Quality of sweetness: sensory attributes scored on a 15-point unstructured line scale; format: in vivo; design: key to Stale Flavor / Metallic Flavor / Mouth Numbing / Mouthburn / Stale Aftertaste / Metallic Aftertaste / Overall Aroma / Sweet Aromatic Aroma / Stale Aroma: scores on a 15-point unstructured line scale; details: for Metallic Aftertaste / Metallic Flavor / Mouth Numbing / Mouthburn / Stale Flavor / Overall Aroma / Stale Aftertaste / Stale Aroma / Sweet Aromatic Aroma / Astringency / Bitterness / Bitterness Aftertaste / Black Licorice Aftertaste / Black Licorice Flavor / Cooling / Overall Aftertaste / Overall Flavor / Sweet Aromatic Aftertaste / Sweet Aromatic Flavor / Sweetness / Sweetness Aftertaste: mean score, 15-point line scale, two replications, room temperature; for Overall Aroma / Stale Aftertaste / Stale Aroma / Sweet Aromatic Aroma: more than 50% of responses zero; for Astringency / Bitterness / Bitterness Aftertaste / Black Licorice Aftertaste / Black Licorice Flavor / Cooling / Overall Aftertaste / Overall Flavor / Sweet Aromatic Aftertaste / Sweet Aromatic Flavor / Sweetness / Sweetness Aftertaste: same superscript letter = not significantly different (95%); for characteristics which were not significantly different from sucrose (number): Fisher's LSD 5%, 95% confidence level
Experimental: The quality of sweetness of the rebaudioside A derivative products 1 (II), 2 (IV), 3 (III), and 4 (V) also was evaluated and compared to that of rebaudioside A, rebaudioside B, rebaudioside F, and sucrose at room temperature. For each attribute, the sweeteners received a score based on a 15-point unstructured line scale. […] A multiple comparison test, Fisher's LSD 5%, aided in the comparative analysis of the scores.

[3] = Sweetness potency of derivative products compared to sucrose at iso-sweetness levels (Example 1); details: in vivo
Source text: These rebaudioside A derivative products were characterized as having an intense sweetening potency. […] Thus, the rebaudioside A derivative products are suitable for use as sweeteners for sweetenable compositions.

| Compound | Metallic Aftertaste [2] | Metallic Flavor [2] | Mouth Numbing [2] | Mouthburn [2] | Stale Flavor [2] | Overall Aroma [2] | Stale Aftertaste [2] | Stale Aroma [2] | Sweet Aromatic Aroma [2] | Astringency [2] | Bitterness [2] | Bitterness Aftertaste [2] | Black Licorice Aftertaste [2] | Black Licorice Flavor [2] | Cooling [2] | Overall Aftertaste [2] | Overall Flavor [2] | Sweet Aromatic Aftertaste [2] | Sweet Aromatic Flavor [2] | Sweetness [2] | also measured |
| --- | --- | --- | --- | --- | --- | --- | --- | --- | --- | --- | --- | --- | --- | --- | --- | --- | --- | --- | --- | --- | --- |
| CC1(C(=O)OC2OC(CO)C(O)C(O)C2O)CCCC2(C)C3CCC4(OC5OC(CO)C(O)C(OC6OC(CO)C(O)C(O)C6O)C5OC5OC(CO)C(O)C(O)C5O)CC3(CCC12)CC4(C)O [Derivative Product 1 (II), 13-[(2-O-β-D-glucopyranosyl-3-O-β-D-glucopyranosyl-β-D-glucopyranosyl)oxy]-16-hydroxy kauran-18-oic acid β-D-glucopyranosyl ester] | 0.67 | 0.71 | 0.38 | 1.11 | 1.01 | 0.17 | 0.56 | 0.10 | 0.04 | 2.38^c | 2.28^bcd | 1.32^cd | 0.00^c | 0.00^d | 0.29^bc | 2.18^d | 3.14^c | 0.09^d | 0.06^c | 1.54^d | Sweetness Intensity of Derivative Product (as compared to equivalent amount of sucrose) [1]: 30; sweetness intensity, times that of sucrose ([1]; water solution vs same weight percentage of sucrose, 3.6 weight percent for 1 (II)): at least 30 times; Sweetness Aftertaste [2]: 0.70^d |
| CC1=CC23CCC4C(C)(C(=O)OC5OC(CO)C(O)C(O)C5O)CCCC4(C)C2CCC1(OC1OC(CO)C(O)C(OC2OC(CO)C(O)C(O)C2O)C1OC1OC(CO)C(O)C(O)C1O)C3 [Derivative Product 2 (IV), 13-[(2-O-β-D-glucopyranosyl-3-O-β-D-glucopyranosyl-β-D-glucopyranosyl)oxy]kaur-15-en-18-oic acid β-D-glucopyranosyl ester] | 0.88 | 0.82 | 0.97 | 1.45 | 1.21 | 0.09 | 0.74 | 0.06 | 0.00 | 2.90^ab | 2.86^ab | 1.82^ab | 0.00^c | 0.07^d | 0.12^c | 2.35^d | 3.58^c | 0.20^cd | 0.19^bc | 1.14^d | Sweetness Intensity of Derivative Product (as compared to equivalent amount of sucrose) [1]: 20; characteristics which were not significantly different from sucrose (number) [2]: 8; overall flavor and sweetness relative to sucrose ([2]; in vivo): comparable to sucrose; Sweetness Aftertaste [2]: 0.41^d |
| CC1(C(=O)O)CCCC2(C)C3CCC4(OC5OC(CO)C(O)C(OC6OC(CO)C(O)C(O)C6O)C5OC5OC(CO)C(O)C(O)C5O)CC3(CCC12)CC4(C)O [Derivative Product 3 (III), 13-[(2-O-β-D-glucopyranosyl-3-O-β-D-glucopyranosyl-β-D-glucopyranosyl)oxy]-16-hydroxy kauran-18-oic acid] | 0.83 | 1.02 | 1.09 | 1.15 | 0.63 | 0.09 | 0.41 | 0.00 | 0.08 | 3.27^a | 2.90^ab | 1.75^abc | 1.37^a | 1.84^ab | 0.57^b | 5.72^ab | 10.02^a | 0.68^abc | 0.77^ab | 9.73^a | Sweetness Intensity of Derivative Product (as compared to equivalent amount of sucrose) [1]: 190; taste quality [3]: sweet clean taste similar to sugar; Sweetness Aftertaste [2]: 5.38^ab |
| CC1=CC23CCC4C(C)(C(=O)O)CCCC4(C)C2CCC1(OC1OC(CO)C(O)C(OC2OC(CO)C(O)C(O)C2O)C1OC1OC(CO)C(O)C(O)C1O)C3 [Derivative Product 4 (V), 13-[(2-O-β-D-glucopyranosyl-3-O-β-D-glucopyranosyl-β-D-glucopyranosyl)oxy]kaur-15-en-18-oic acid] | 0.63 | 0.87 | 0.90 | 1.23 | 0.77 | 0.19 | 0.47 | 0.09 | 0.00 | 3.01^ab | 2.08^cde | 1.38^bcd | 1.25^a | 1.40^bc | 0.70^ab | 5.24^b | 6.44^b | 0.83^ab | 0.75^ab | 6.04^b | Sweetness Intensity of Derivative Product (as compared to equivalent amount of sucrose) [1]: 120; taste quality [3]: sweet clean taste similar to sugar; characteristics which were not significantly different from sucrose (number) [2]: 8; Sweetness Aftertaste [2]: 4.85^b |
| C=C1C[C@@]23CC[C@H]4[C@@](C)(CCC[C@@]4(C)C(=O)OC4OC(CO)C(O)C(O)C4O)[C@@H]2CC[C@]1(OC1OC(CO)C(O)C(OC2OC(CO)C(O)C(O)C2O)C1OC1OC(CO)C(O)C(O)C1O)C3 (stereo partly shown) [Reb. A, Rebaudioside A] | 0.80 | 0.97 | 0.76 | 1.29 | 0.89 | 0.16 | 0.48 | 0.00 | 0.14 | 3.14^ab | 3.43^a | 2.21^a | 1.47^a | 2.31^a | 1.10^a | 6.34^a | 9.88^a | 0.50^bcd | 0.71^ab | 9.59^a | Sweetness Aftertaste [2]: 5.91^a |
| OC[C@H]1O[C@@](CO)(O[C@H]2O[C@H](CO)[C@@H](O)[C@H](O)[C@H]2O)[C@@H](O)[C@@H]1O [Sucrose, sucrose, reference compound] | 0.67 | 1.04 | 0.57 | 1.06 | 0.50 | 0.40 | 0.58 | 0.11 | 0.24 | 3.03^ab | 1.47^e | 0.97^d | 0.26^c | 0.13^d | 0.38^bc | 5.05^b | 10.73^a | 1.01^a | 1.12^a | 10.45^a | Sweetness Aftertaste [2]: 4.76^b |
| rebaudioside B [Reb. B, reference compound] | 0.47 | 0.82 | 0.54 | 0.97 | 0.92 | 0.28 | 0.63 | 0.26 | 0.00 | 2.79^bc | 1.72^de | 1.07^d | 0.80^b | 0.89^c | 0.57^b | 3.54^c | 4.20^c | 0.46^bcd | 0.54^abc | 3.55^c | Sweetness Aftertaste [2]: 3.11^c |
| rebaudioside F [Reb. F, reference compound] | 0.88 | 1.13 | 0.98 | 1.35 | 1.14 | 0.29 | 0.81 | 0.00 | 0.18 | 3.28^a | 2.64^bc | 1.70^bc | 0.75^b | 0.88^c | 0.57^b | 3.89^c | 5.38^b | 0.46^bcd | 0.59^abc | 4.98^b | Sweetness Aftertaste [2]: 3.34^c |
